Test results as given in ChEMBL document CHEMBL1151807, “Myxotyrosides A and B, Unusual rhamnosides from Myxococcus sp” (J Nat Prod, 2009).
Active and inactive are the calls of the source. The calls are words filed in the database; no cut-off is given here.

Tests used:
Assay type in all cases: functional, organism-based
[1] = system: Myxococcus xanthus DK 1622; experiment: Inhibition of Myxococcus xanthus DK 1622 growth at 0.5 mg after 72 hrs by agar diffusion assay
Pseudomonas putida [2] = experiment: Quorum sensing activity in Pseudomonas putida F117 pKR-C12 assessed as activation of acyl-homoserinlactone-related signaling at 10 ul after 24 hrs by thin-layer chromatography
Pseudomonas putida [3] = experiment: Inhibition of acyl-homoserinlactone-related quorum sensing activity in Pseudomonas putida F117 pKR-C12 at 10 ul after 24 hrs by thin-layer chromatography
Pseudomonas putida [4] = experiment: Quorum sensing activity in Pseudomonas putida F117 pAS-C8 assessed as activation of acyl-homoserinlactone-related signaling at 0 to 1000 nM after 4 hrs by fluorescence assay
[5] = system: Chromobacterium violaceum; experiment: Inhibition of acyl-homoserinlactone-related quorum sensing activity in Chromobacterium violaceum at 0 to 1000 nM after 4 hrs by fluorescence assay
Pseudomonas putida [6] = experiment: Inhibition of acyl-homoserinlactone-related quorum sensing activity in Pseudomonas putida F117 pAS-C8 at 0 to 1000 nM after 4 hrs by fluorescence assay
Escherichia coli [7] = experiment: Quorum sensing activity in Escherichia coli MT102 harbouring pSB403 assessed as activation of acyl-homoserinlactone-related signaling at 0 to 1000 nM after 4 hrs by fluorescence assay
[8] = system: Chromobacterium violaceum; experiment: Quorum sensing activity in Chromobacterium violaceum assessed as activation of acyl-homoserinlactone-related signaling at 0 to 1000 nM after 4 hrs by fluorescence assay
Escherichia coli [9] = experiment: Inhibition of acyl-homoserinlactone-related quorum sensing activity in Escherichia coli MT102 harbouring pSB403 at 0 to 1000 nM after 4 hrs by fluorescence assay
Microbotryum violaceum = experiment: Antimicrobial activity against Microbotryum violaceum at 50 ug/disk by disk diffusion assay
Aspergillus ruber = experiment: Antimicrobial activity against Eurotium rubrum at 50 ug/disk by disk diffusion assay
[Chlorella] fusca = Antimicrobial activity against Chlorella fusca at 50 ug/disk by disk diffusion assay; conditions: Scenedesmus fuscus
Escherichia coli [10] = experiment: Antimicrobial activity against Escherichia coli at 50 ug/disk by disk diffusion assay
Mycotypha microspora = experiment: Antimicrobial activity against Mycotypha microspora at 50 ug/disk by disk diffusion assay
Plasmodium falciparum = experiment: Antiplasmodial activity against Plasmodium falciparum
Priestia megaterium = experiment: Antimicrobial activity against Bacillus megaterium at 50 ug/disk by disk diffusion assay

Structure (SMILES) | Activity [1] | Activity (Pseudomonas putida [2]) | Activity (Pseudomonas putida [3]) | Activity (Pseudomonas putida [4]) | Activity [5] | Activity (Pseudomonas putida [6]) | Activity (Escherichia coli [7]) | Activity [8] | Activity (Escherichia coli [9]) | Activity (Microbotryum violaceum) | Activity (Aspergillus ruber) | Activity ([Chlorella] fusca) | Activity (Escherichia coli [10]) | Activity (Mycotypha microspora) | IC50 (Plasmodium falciparum) [µM] | Activity (Priestia megaterium)
CCCCCCCCCCCCC/C=C\C(=O)N/C=C\c1ccc(O[C@@H]2O[C@@H](C)[C@H](O)[C@@H](O)[C@H]2O)cc1 | inactive | inactive | Active | inactive | Active | Active | inactive | inactive | Active | – | – | – | – | – | – | –
CC(C)CCCCCCCCCCC/C=C\C(=O)N/C=C\c1ccc(O[C@@H]2O[C@@H](C)[C@H](O)[C@@H](O)[C@H]2O)cc1 [MYXOTYROSIDE A] | inactive | inactive | Active | inactive | Active | Active | inactive | inactive | Active | inactive | inactive | inactive | inactive | inactive | 7 | inactive
